Source: ChEMBL document CHEMBL1201862, “PubChem BioAssay data set” (2004)
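Protocol summary: plate cells (96-well), add compound at 5 concentrations, incubate 48 h, interpolate endpoints linearly. GI50: concentration for 50% inhibition of growth.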 The source made the active and inactive calls. No stated cut-off is given here; in the data, active = GI50 up to about 1.1 µM and inactive = higher.

Tests used:
Assay in all cases: NCI tumour cell line growth inhibition, 48 h
MOLT-4 = system: MOLT-4
SF-268 = system: SF-268
HCT-116 = system: HCT-116
UACC-62 = system: UACC-62
HCT-15 = system: HCT-15
U-251 = system: U-251
HT-29 = system: HT-29
UO-31 = system: UO-31
MDA-MB-435 = system: MDA-MB-435
SNB-19 = system: SNB-19
UACC-257 = system: UACC-257
HCC 2998 = system: HCC 2998
CAKI-1 = system: CAKI-1
SF-539 = system: SF-539
RPMI-8226 = system: RPMI-8226
NCI-H23 = system: NCI-H23
A498 = system: A498
SR = system: SR
RXF 393 = system: RXF 393
M14 = system: M14
786-0 = system: 786-0
SK-MEL-2 = system: SK-MEL-2
MCF7 = system: MCF7
OVCAR-8 = system: OVCAR-8
Hs-578T = system: Hs-578T
ACHN = system: ACHN
CCRF-CEM = system: CCRF-CEM
KM12 = system: KM12
EKVX = system: EKVX
BT-549 = system: BT-549
SK-MEL-5 = system: SK-MEL-5
LOX IMVI = system: LOX IMVI
K562 = system: K562
NCI-H226 = system: NCI-H226
TK-10 = system: TK-10
HOP-62 = system: HOP-62
NCI/ADR-RES = system: NCI/ADR-RES
A549 = system: A549
HOP-92 = system: HOP-92
SK-MEL-28 = system: SK-MEL-28
OVCAR-4 = system: OVCAR-4
PC-3 = system: PC-3
DU-145 = system: DU-145
OVCAR-5 = system: OVCAR-5
NCI-H522 = system: NCI-H522
SF-295 = system: SF-295
MDA-MB-231 = system: MDA-MB-231
COLO 205 = system: COLO 205
OVCAR-3 = system: OVCAR-3
SW-620 = system: SW-620
T47D = system: T47D
SK-OV-3 = system: SK-OV-3
SN12C = system: SN12C
IGROV-1 = system: IGROV-1
NCI-H460 = system: NCI-H460
HL-60 = system: HL-60
Malme-3M = system: Malme-3M
MDA-N = system: MDA-N

Question: Which results are given for `Cc1ccc(C2=NN=C3C(c4ccccc4)=Nc4ccccc4N3C2)cc1`?
Answer: GI50 (MOLT-4): 1.34 µM (inactive); GI50 (SF-268): 4.49 µM (inactive); GI50 (HCT-116): 5.28 µM (inactive); GI50 (UACC-62): 15.7 µM (inactive); GI50 (HCT-15): 4.73 µM; GI50 (U-251): 6.49 µM (inactive); GI50 (HT-29): 11.6 µM (inactive); GI50 (UO-31): 4.1 µM (inactive); GI50 (MDA-MB-435): 16.3 µM (inactive); GI50 (SNB-19): 16.9 µM (inactive); GI50 (UACC-257): 4.03 µM (inactive); GI50 (HCC 2998): 19.6 µM (inactive); GI50 (CAKI-1): 19.7 µM (inactive); GI50 (SF-539): 19.1 µM (inactive); GI50 (RPMI-8226): 5.98 µM (inactive); GI50 (NCI-H23): 25.7 µM (inactive); GI50 (A498): > 53.1 µM (inactive); GI50 (SR): 1.56 µM (inactive); GI50 (RXF 393): 4.41 µM (inactive); GI50 (M14): 3.64 µM (inactive); GI50 (786-0): 6.56 µM (inactive); GI50 (SK-MEL-2): 22.6 µM (inactive); GI50 (MCF7): 8.38 µM (inactive); GI50 (OVCAR-8): 6.07 µM (inactive); GI50 (Hs-578T): 9.16 µM (inactive); GI50 (ACHN): 16.7 µM (inactive); GI50 (CCRF-CEM): 1.88 µM (inactive); GI50 (KM12): 26.4 µM (inactive); GI50 (EKVX): 10.9 µM (inactive); GI50 (BT-549): 20.6 µM (inactive); GI50 (SK-MEL-5): 6.31 µM (inactive); GI50 (LOX IMVI): 5.65 µM (inactive); GI50 (K562): 4.61 µM (inactive); GI50 (NCI-H226): 12.9 µM (inactive); GI50 (TK-10): 0.348 µM (active); GI50 (HOP-62): 9.98 µM (inactive); GI50 (NCI/ADR-RES): 3.93 µM (inactive); GI50 (A549): 27.7 µM (inactive); GI50 (HOP-92): 24.1 µM (inactive); GI50 (SK-MEL-28): > 38 µM (inactive); GI50 (OVCAR-4): 3.18 µM (inactive); GI50 (PC-3): 11.8 µM (inactive); GI50 (DU-145): 3.14 µM (inactive); GI50 (OVCAR-5): 18 µM (inactive); GI50 (NCI-H522): 2.92 µM (inactive); GI50 (SF-295): 12 µM (inactive); GI50 (MDA-MB-231): 19.8 µM (inactive); GI50 (COLO 205): 9.77 µM (inactive); GI50 (OVCAR-3): 2.61 µM (inactive); GI50 (SW-620): 5.51 µM (inactive); GI50 (T47D): 27.2 µM (inactive); GI50 (SK-OV-3): 21 µM (inactive); GI50 (SN12C): 15.5 µM (inactive); GI50 (IGROV-1): 13.1 µM (inactive); GI50 (NCI-H460): 3.56 µM (inactive); GI50 (HL-60): 1.92 µM (inactive); GI50 (Malme-3M): 5.38 µM (inactive); GI50 (MDA-N): 32.9 µM (inactive)
